Data as given in patent publication US20010049128A1, “PROCESS FOR THE FERMENTATIVE PRODUCTION OF L-AMINO ACIDS” (priority 1998, published 2001).
Read-outs that look alike come from different tables or passages of the source.

How the values were obtained:
[1] = system: Corynebacterium glutamicum DSM5715; conditions: Proline 0.5 g/l; 72 hours at 33° C., 150 rpm; NaCl 5 g/l
Description: A culture medium containing 2.5 g/l NaCl, 10 g/l peptone and 10 g/l yeast extract was adjusted to pH 7.4 with sodium hydroxide and, after heat sterilisation, 40 ml of 50% glucose solution per liter was added thereto. 47 ml portions of the medium were inoculated with Corynebacterium glutamicum DSM5715 with a needle on an agar plate with brain-heart agar as nutrient medium incubated for 48 hours and were shaken at 150 rpm for 20 hours at 33° C. in an RC-1-TK incubator from the firm Infors AG (Bottmingen, Switzerland). The cells were then washed with sterile physiological saline. The cells were separated by centrifugation for 20 minutes at 4000 rpm in a Beckmann centrifuge J 6B.
For the main cultivation in shaking flasks, 40 g (NH4)2SO4, 0.5 g KH2PO4, 0.5 g K2HPO4, 0.25 g MgSO4.7H2O and 0.3 g L-leucine were weighed in a 1 l beaker and 750 ml distilled water was added thereto. […]
The cultivation took place over 72 hours at 33° C. and 150 rpm in an RC-1-TK incubator from the firm Infors AG (Bottmingen, Switzerland). Subsequent to this, the optical density (OD) (photometer LP2W from the firm Dr. Lange, Berlin, Germany) and the concentration of L-amino acid formed in the culture suspension were determined. Amino acids were analysed by ion-exchange chromatography and post-column reaction with ninhydrin detection, using an amino acid analyser from the firm Eppendorf BioTronik (Hamburg, Germany).

[2] = system: Brevibacterium flavum DSM5399; conditions: Proline 0.1 g/l; 72 hours at 30° C., 300 rpm
Description: The solution of trace salts consisted of 1.0 g FeSO4.7H2O, 1.0 g MnSO4.H2O, 0.1 g ZnSO4.7H2O, 0.02 g CuSO4 and 0.002 g NiCl2.6H2O, which was made up to 100 ml with demineralised water and a few drops of a 1N HCl solution.
1 ml each of a 0.2 mg/l biotin and thiamine stock solution, which had been sterilised by filtration, were added to the culture medium. 10.0 g/l CaCO3 was sterilised together with the shaking flasks.
10 ml portions of cultivation medium were placed in 100 ml Erlenmeyer shaking flasks and inoculated with 100 μl of the withdrawn cell suspension. The cultivation took place over 72 hours at 30° C. and 300 rpm.

[3] = system: Brevibacterium flavum DSM5399; conditions: 72 hours at 30° C., 300 rpm
Description: A culture medium containing 100 g/l saccharose, 12 g/l (NH4)2SO4, 100 ml/l soya flour hydrolysate, 0.5 g/l K2HPO4, 0.5 g/l KH2PO4, 0.25 g/l MgSO4.7H2O, 5.0 g/l NaCl and 1 ml of a solution of trace salts was adjusted to pH 7.0 and autoclaved. The solution of trace salts consisted of 1.0 g FeSO4.7H2O, 1.0 g MnSO4.H2O, 0.1 g ZnSO4.7H2O, 0.02 g CuSO4 and 0.002 g NiCl2.6H2O, which was made up to 100 ml with demineralised water and a few drops of a 1N HCl solution.
1 ml each of a 0.2 mg/l biotin and thiamine stock solution, which had been sterilised by filtration, were added to the culture medium. 10.0 g/l CaCO3 was sterilised together with the shaking flasks. In the culture medium, the proline concentration resulting from the introduction of soya flour hydrolysate was 0.34 g/l. The specified concentration of proline, obtained from a proline stock solution, was added to the medium after having been sterilised by filtration.
An agar plate with brain-heart agar as nutrient medium, which had been incubated for 72 hours with DSM5399, was suspended in 10 ml of sterile physiological saline. 10 ml portions of cultivation medium were placed in 100 ml Erlenmeyer shaking flasks and inoculated with 100 μl of the withdrawn cell suspension. The cultivation took place over 72 hours at 30° C. and 300 rpm. Subsequent to this, as specified in Example 1, the OD was determined at a wavelength of 660 nm and the threonine concentration was measured.

[4] = system: cells in media with inhibiting osmotic stress; conditions: cited from earlier work
[5] = Proline 0.34 g/l (resulting from soya flour hydrolysate, none added)

Structure (SMILES): O=C(O)[C@@H]1CCCN1 [Proline, L-proline]
- Lysine [1]: 29.4 g/L
- OD 535 nm [1]: 30.5
- L-isoleucine [2]: 0.36 g/L
- OD 660 nm [2]: 52.0
- OD 660 nm [3, 5]: 51.2
- Threonine [3, 5]: 0.63 g/L
- OD 660 nm ([3]; Proline 0.66 g/l): 52.6
- Threonine ([3]; Proline 0.66 g/l): 1.29 g/L

Structure (SMILES): C[N+](C)(C)CC(=O)[O-] [glycine betaine]
- growth rate of the cells [4]: stimulates the growth rate
- production of L-lysine [4]: increase in the production of L-lysine
